Data taken from US20260297042A1, “BIARYLAMIDE DERIVATIVES AND THEIR USE AS PKMYT1 INHIBITORS” (CANCER RESEARCH TECHNOLOGY LIMITED, priority 2023, published 2026).

Key:
[1] = target: T1, WEE1 (Homo sapiens, UniProt P30291); experiment: Selectivity versus WEE1 assay (ADP-Glo enzymatic assay); format: biochemical; settings: banded; for IC50: ADP-Glo, 15 nM WEE1, 60 minutes at 26° C.; for PKMYT1 vs. WEE1 selectivity: fold difference in selectivity for PKMYT1 over WEE1, ">N" = at least in this band but could be higher
T1 construct: purchased Thermo Fisher PR7373A
T1 sequence (P30291 whole entry): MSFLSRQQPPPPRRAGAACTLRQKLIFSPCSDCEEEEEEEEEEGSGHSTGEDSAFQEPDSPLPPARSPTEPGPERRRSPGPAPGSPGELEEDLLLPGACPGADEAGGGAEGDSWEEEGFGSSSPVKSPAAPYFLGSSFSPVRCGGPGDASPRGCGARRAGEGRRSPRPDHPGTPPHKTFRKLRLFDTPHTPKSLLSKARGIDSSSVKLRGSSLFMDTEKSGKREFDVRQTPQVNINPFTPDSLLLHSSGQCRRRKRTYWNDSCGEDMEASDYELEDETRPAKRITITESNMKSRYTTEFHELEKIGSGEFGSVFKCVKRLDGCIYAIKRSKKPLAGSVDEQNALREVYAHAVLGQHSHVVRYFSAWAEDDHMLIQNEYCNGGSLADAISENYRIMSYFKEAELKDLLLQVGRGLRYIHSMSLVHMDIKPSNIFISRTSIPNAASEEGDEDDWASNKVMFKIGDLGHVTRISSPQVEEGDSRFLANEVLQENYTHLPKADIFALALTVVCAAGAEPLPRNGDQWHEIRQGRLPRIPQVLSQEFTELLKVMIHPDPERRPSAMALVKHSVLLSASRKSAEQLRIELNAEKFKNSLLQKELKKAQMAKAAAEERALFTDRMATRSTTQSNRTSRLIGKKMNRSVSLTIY
Summary of the method: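 Inhibition is measured as reduced ADP production, detected by luminescence with ADP-Glo, after enzyme (15 nM) and 30 µM ATP react for 60 min at 26° C in 1% DMSO-containing HEPES buffer, pH 7.5. Data are accepted only if replicate IC50s fall within 3-fold and r2 exceeds 0.9.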

[2] = tested on: KYSE-30 cells; experiment: Cancer cell line proliferation assay, nuclear count, KYSE-30 (normal CCNE1); format: cell-based; settings: Homo sapiens, normal CCNE1 expression, banded, read-out: KYSE30 GI50
Description: (§1) h-TERT-RPE1 TP53−/− and CCNE1 high expressing clones (clone cell lines 7 and 15) were treated with test compounds dissolved in DMSO at serially diluted concentrations alongside a DMSO only control for around 6 population doublings time. Cells were then fixed with 4% Paraformaldehyde and the cell nuclei were stained with DAPI (Sigma D9542). Images covering each well were acquired by an Opera Phenix® High-Content Screening System (PerkinElmer). Image analysis was performed using Harmony® high-content analysis software (PerkinElmer). Data analysis was performed using Microsoft Excel® and GI50 estimates generated with GraphPad Prism v9. Percent nuclear count was compared to vehicle control wells and used to measure inhibition of proliferation.
(§2) Cancer cell lines with either normal (KYSE-30) or amplified CCNE1 expression (OVCAR3-ovarian cancer) were evaluated for their sensitivity to PKMYT1 inhibitors in a nuclear count assay as described above for h-TERT-RPE1 TP53−/− and a CCNE1 high expressing clones, taking into account the slower cell cycle division times of these lines.

[3] = target: T2, Human PKMYT1 (Homo sapiens, UniProt Q99640); experiment: PKMYT1 biochemical ADP-Glo enzymatic assay; settings: ADP-Glo; 15 nM PKMYT1 kinase domain, 500 µM ATP, 60 minutes at 26° C.; banded
T2 construct: Human PKMYT1 75-362 was cloned as a TEV cleavable 6xHis fusion; 6xHis (TEV cleavable) (cleaved yes); made in house; host or cells: bacterial cells
T2 sequence (Q99640 75-362): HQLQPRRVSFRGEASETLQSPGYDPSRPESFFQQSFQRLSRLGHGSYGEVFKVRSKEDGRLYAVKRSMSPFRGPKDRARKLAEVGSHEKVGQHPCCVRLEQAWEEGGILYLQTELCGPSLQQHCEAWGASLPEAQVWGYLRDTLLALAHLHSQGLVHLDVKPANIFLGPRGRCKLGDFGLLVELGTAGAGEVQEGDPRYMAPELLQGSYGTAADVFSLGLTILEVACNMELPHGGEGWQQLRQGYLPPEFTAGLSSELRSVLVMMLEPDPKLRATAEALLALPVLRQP
Summary of the method: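 IC50 derived from luminescence (ADP-Glo Max) after PKMYT1 kinase domain, 15 nM, turned over 500 µM ATP for 60 min at 26 °C. Buffer contained 10 mM MgCl2, 1 mM EGTA and 0.01% Brij-35 at pH 7.5.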

[4] = tested on: OVCAR3 cells; experiment: Cancer cell line proliferation assay, nuclear count, OVCAR3 (CCNE1-amplified); format: cell-based; settings: banded
Description: as §1, §2

[5] = tested on: h-TERT-RPE1 TP53−/− parental cells; experiment: Nuclear count cell proliferation assay, parental (wild type) h-TERT-RPE1 TP53−/− cells; format: cell-based; settings: hTERT-RPE1, h-TERT-RPE1 TP53−/− parental (Wt), around 6 population doublings, banded, read-out: RPE Wt GI50
Description: as §1

[6] = tested on: h-TERT-RPE1 TP53−/− CCNE1 high expressing clone cell line 15 (CL15); experiment: Nuclear count cell proliferation assay, CCNE1 high expressing clone cell line 15 (CL15) of h-TERT-RPE1 TP53−/−; format: cell-based; settings: banded; for Selectivity Ratio Wt vs. CL15: GI50 ratio RPE Wt vs. CL15, >N = at least in this band; for GI50: h-TERT-RPE1 TP53−/− CCNE1 high clone CL15, nuclear count, around 6 population doublings, read-out: RPE CL15 GI50
Description: as §1

[7] = tested on: h-TERT-RPE1 TP53−/− CCNE1 high expressing clone cell line 7 (CL7); experiment: Nuclear count cell proliferation assay, CCNE1 high expressing clone cell line 7 (CL7) of h-TERT-RPE1 TP53−/−; format: cell-based; settings: banded; for Selectivity Ratio Wt vs. CL7: GI50 ratio RPE Wt vs. CL7, >N = at least in this band; for GI50: hTERT-RPE1, h-TERT-RPE1 TP53−/− CCNE1 high clone CL7, nuclear count, around 6 population doublings, read-out: RPE CL7 GI50
Description: as §1

Compound | IC50 [1] | PKMYT1 vs. WEE1 selectivity [1] | GI50 [2] | IC50 [3] | Selectivity ratio KYSE30 GI50 vs. OVCAR3 GI50 ([4]; GI50 ratio KYSE30 vs. OVCAR3, >N = at least in this band) | GI50 ([4]; Homo sapiens, OVCAR-3, CCNE1-amplified ovarian cancer, nuclear count) | GI50 [5] | Selectivity Ratio Wt vs. CL15 [6] | GI50 [6] | Selectivity Ratio Wt vs. CL7 [7] | GI50 [7]
Cc1ccc(O)c(C)c1NC(=O)c1cnc(Nc2cc(C(F)(F)F)nn2C)s1 [BAA-046, N-(3-hydroxy-2,6-dimethyl-phenyl)-2-[[2-methyl-5-(trifluoromethyl)pyrazol-3-yl]amino]thiazole-5-carboxamide] | > 11000 nM | >X (100-<1000 fold) | 3000 to 10000 nM | 50 to 1000 nM | X (3-<10 fold) | 500 to 3000 nM | – | – | – | – | –
Cc1ccc(O)c(C)c1NC(=O)c1cnc(NC2CC2)s1 [BAA-061, 2-(cyclopropylamino)-N-(3-hydroxy-2,6-dimethyl-phenyl)thiazole-5-carboxamide] | > 11000 nM | X (100-<1000 fold) | – | 50 to 1000 nM | – | – | 3000 to 10000 nM | X (3-<10 fold) | 500 to 3000 nM | – | –
Cc1ccc(O)c(C)c1NC(=O)c1cnc(NCCCNC(=O)OC(C)(C)C)s1 [BAA-071, tert-butyl N-[3-[5-[(3-hydroxy-2,6-dimethyl-phenyl)carbamoyl]thiazol-2-yllamino]propyl]carbamate] | > 11000 nM | >X (100-<1000 fold) | – | 50 to 1000 nM | – | – | > 10000 nM | – | – | X (3-<10 fold) | 500 to 3000 nM
Cc1ccc(O)c(C)c1NC(=O)c1cnc(Nc2ccn([C@@H]3CCN(Cc4ccccc4)C3)n2)s1 [BAA-113, 2-[[1-[(3R)-1-Benzylpyrrolidin-3-yl]pyrazol-3-yl]amino]-N-(3-hydroxy-2,6-dimethyl-phenyl)thiazole-5-carboxamide] | > 11000 nM | >X (100-<1000 fold) | – | 50 to 1000 nM | – | – | 3000 to 10000 nM | – | – | Y (10-30 fold) | 500 to 3000 nM
CCOC(=O)c1cn(C)nc1Nc1ncc(C(=O)Nc2c(C)ccc(O)c2C)s1 [BAA-129, ethyl 3-[[5-[(3-hydroxy-2,6-dimethyl-phenyl)carbamoyl]thiazol-2-yl]amino]-1-methyl-pyrazole-4-carboxylate] | > 11000 nM | >Y (1000-5000 fold) | – | 50 to 1000 nM | – | – | > 10000 nM | X (3-<10 fold) | 500 to 3000 nM | – | –
Cc1ccc(O)c(C)c1NC(=O)c1cnc(Nc2ccn(CC(=O)N3CCC(C)(C)CC3)n2)s1 [BAA-137] | > 11000 nM | Y (1000-5000 fold) | – | < 50 nM | – | – | 500 to 3000 nM | – | – | X (3-<10 fold) | 500 to 3000 nM
Cc1ccc(O)c(C)c1NC(=O)c1cnc(Nc2ccn(CC(=O)NC3CCN(C(=O)OC(C)(C)C)CC3)n2)s1 [BAA-152] | 1000 to 11000 nM | X (100-<1000 fold) | – | < 50 nM | – | – | > 10000 nM | X (3-<10 fold) | 500 to 3000 nM | – | –
Cc1ccc(O)c(C)c1NC(=O)c1cnc(Nc2ccn(CC(=O)NCCN(C)C)n2)s1 [BAA-160] | > 11000 nM | X (100-<1000 fold) | – | 50 to 1000 nM | – | – | 3000 to 10000 nM | – | – | X (3-<10 fold) | 500 to 3000 nM
Cc1ccc(O)c(C)c1NC(=O)c1cnc(Nc2ccn(CC(=O)N3CCN(CC4CC4)CC3)n2)s1 [BAA-183] | > 11000 nM | Y (1000-5000 fold) | – | < 50 nM | – | – | 3000 to 10000 nM | – | – | X (3-<10 fold) | < 500 nM
Cc1ccc(O)c(C)c1NC(=O)c1cnc(Nc2ccn(CC(=O)NC3CC3)n2)s1 [BAA-190] | > 11000 nM | Y (1000-5000 fold) | – | < 50 nM | – | – | 3000 to 10000 nM | – | – | X (3-<10 fold) | 500 to 3000 nM
Cc1ccc(O)c(C)c1NC(=O)c1cnc(Nc2ccn(CC(=O)OC(C)C)n2)s1 [BAA-209, Isopropyl 2-[3-[[5-[(3-hydroxy-2,6-dimethyl-phenyl)carbamoyl]thiazol-2-yl]amino]pyrazol-1-yl]acetate] | > 11000 nM | X (100-<1000 fold) | – | < 50 nM | – | – | 500 to 3000 nM | – | – | >X (3-<10 fold) | < 500 nM
Cc1ccc(O)c(C)c1NC(=O)c1cnc(Nc2ccn(CC(=O)NC3CCNCC3)n2)s1 [BAA-224, N-(3-hydroxy-2,6-dimethylphenyl)-2-((1-(2-oxo-2-(piperidin-4-ylamino)ethyl)-1H-pyrazol-3-yl)amino)thiazole-5-carboxamide] | > 11000 nM | X (100-<1000 fold) | – | < 50 nM | – | – | 3000 to 10000 nM | – | – | Z (>30 fold) | < 500 nM
Cc1ccc(O)c(C)c1NC(=O)c1cnc(Nc2ccn(CC(=O)N3CCNC(C)(C)C3)n2)s1 [BAA-229, 2-((1-(2-(3,3-dimethylpiperazin-1-yl)-2-oxoethyl)-1H-pyrazol-3-yl)amino)-N-(3-hydroxy-2,6-dimethylphenyl)thiazole-5-carboxamide] | > 11000 nM | Y (1000-5000 fold) | – | < 50 nM | – | – | > 10000 nM | – | – | X (3-<10 fold) | 3000 to 10000 nM
Cc1ccc(O)c(C)c1NC(=O)c1cnc(Nc2ccn(CC(=O)N3CC4CCC(C3)N4)n2)s1 [BAA-230, 2-((1-(2-(3,8-diazabicyclo[3.2.1]octan-3-yl)-2-oxoethyl)-1H-pyrazol-3-yl)amino)-N-(3-hydroxy-2,6-dimethylphenyl)thiazole-5-carboxamide] | > 11000 nM | X (100-<1000 fold) | – | < 50 nM | – | – | > 10000 nM | – | – | X (3-<10 fold) | 3000 to 10000 nM
